Here are results for nine compounds from patent US20080161223A1, “Spirobornyl-2,4-(1,3-Dioxanes)] And Their Uses As Fragrance Ingredients” (GIVAUDAN SA, priority 2005, published 2008).

Molecules are shown by their SMILES.

Tested on in the first test: not listed separately
The test can be described thus: Relative odour threshold of constituents compared to the whole stereoisomer mixture. The following applies: ratio rac-1b: rac-1d: 1f. The source says:
b) A 6:2:1 racemic mixture If of diastereomers of (1R*,2S*,2′S*,4R*,5′R*)-, (1R*,2S*,2′S*,4R*,5′S*)- and (1R*,2S*,2′R*,4R*,5′S*)-1,2′,5′,7,7-pentamethylspiro[bicyclo[2.2.1]heptane-2,4′-[1,3]dioxane] was obtained in 38% overall yield following the experimental procedure of Example 1c, starting from the diol mixture 2d obtained from rac-camphor via 2-(1-methylallyl)-1,7,7-trimethylbicyclo[2.2.1]heptan-2-ol (5a), applying the methodology of Kostova et al (Helv. Chim. Acta 1999, 82, 1385), i.e. route III. The epimeric intermediate enols and diols were not separated. (1R*,2S*,2′S*,4R*,5′S*)- and (1R*,2S*,2′S*,4R*,5′R*)- enatiomeric pairs are the strongest constituents of the mixture. Their relative odour threshold, compared to the whole stereoisomer mixture, were 1:50:4 (rac-1b: rac-1d: 1f).
Turning to `CC1OCC(C)C2(CC3CCC2(C)C3(C)C)O1` (racemic) [rac-1d], the relative odour threshold was determined as 50. As for `CC1OCC(C)C2(CC3CCC2(C)C3(C)C)O1` (racemic) [rac-1b], the relative odour threshold is on record as 1. `CC1OCC(C)C2(CC3CCC2(C)C3(C)C)O1` (racemic) [Compound 1f, (1RS,2SR,2′RS/SR,4RS,5′RS/SR)-1,2′,5′,7,7-Pentamethylspiro[bicyclo[2.2.1]heptane-2,4′-[1,3]dioxane]]: the relative odour threshold is recorded as 4.

Tested on in the next test: not listed separately
The test can be described thus: Odour description (olfactory evaluation of the compound). Particulars: stated within the odour description.
On to `CC[C@@H]1OC[C@H](C)[C@]2(C[C@H]3CC[C@]2(C)C3(C)C)O1` [Compound 1h, (1R,2S,2′R,4R,5′S)-2′-Ethyl-1,5′,7,7-tetramethylspiro[bicyclo[2.2.1]heptane-2,4′-[1,3]dioxane]], for which the “Odour strength compared to another compound” value was “weaker than compound 1g”. `CC(C)[C@@H]1OC[C@H](C)[C@]2(C[C@H]3CC[C@]2(C)C3(C)C)O1` [Compound 1j, (1R,2S,2′R,4R,5′S)-2′-Isopropyl-1,5′,7,7-tetramethylspiro[bicyclo[2.2.1]heptane-2,4′-[1,3]dioxane]]: the “Odour strength compared to another compound” value is on record as “weaker than compound 1i”.

For `C[C@@H]1OC[C@H](C)[C@]2(C[C@H]3CC[C@]2(C)C3(C)C)O1` (single isomer, unassigned) [Compound 1c], the “Odour strength compared to another compound” value was “weaker than 1b”.

Another test relates to panel of trained evaluators. The test can be described thus: Determination of GC-odour threshold concentration. Particulars: gas chromatograph with sniff port; racemic mixture of compounds; group of 4 panelists; identical conditions. The protocol: Determination of GC-odour threshold concentration
According to standard procedures known to the person skilled in the art, threshold concentrations for volatile perfumery compounds are determined on a gas chromatograph equipped with a sniff port by a panel of trained evaluators. The lowest concentration smelled by each panellist is recorded as the individual threshold concentration expressed in ng (absolute amount of compound delivered at the sniff port).
Under identical conditions the odour threshold concentration for racemic mixture of compounds A, B and C respectively was measured and compared by a group of 4 panelists.
With `CC1OCC(C)C2(CC3CCC2(C)C3(C)C)O1` (stereo not drawn) [C], the “odour threshold concentration geometric mean” value worked out at 3 ng. Still for that read-out and setting: next, `CC1OCCC2(CC3CCC2(C)C3(C)C)O1` (racemic) [A]: 22 ng; `CC1CC2(CC3CCC2(C)C3(C)C)OC(C)O1` (racemic) [B]: 68 ng.
